Source: paper PMC12136037, “Type II kinase inhibitors that target Parkinson’s disease–associated LRRK2” (Science Advances, 2025)

Legend:
Assay in all cases: DSF 100 kinase selectivity screen;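 also: compound tested at 20 µM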
Type in all cases: binding
[1] = target: T1, ~100 representative kinases (Homo sapiens, UniProt O94768); settings: Protein STK17B; DSF; average of three replicates
T1 construct: Recombinant protein kinase domains with a concentration of 2 μM
T1 sequence (O94768 1-372): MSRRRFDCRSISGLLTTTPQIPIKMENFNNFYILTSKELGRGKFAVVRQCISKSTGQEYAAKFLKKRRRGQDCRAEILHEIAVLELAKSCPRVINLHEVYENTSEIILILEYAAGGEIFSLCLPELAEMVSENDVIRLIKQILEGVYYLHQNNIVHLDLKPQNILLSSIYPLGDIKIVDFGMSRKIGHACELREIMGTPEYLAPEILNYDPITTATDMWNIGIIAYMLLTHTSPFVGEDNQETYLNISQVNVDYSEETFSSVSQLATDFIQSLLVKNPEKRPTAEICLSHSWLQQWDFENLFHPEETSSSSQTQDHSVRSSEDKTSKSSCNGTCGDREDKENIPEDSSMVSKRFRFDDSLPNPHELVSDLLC
Summary of the method: (§1)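 Each kinase domain, at 2 μM, is mixed with 20 μM test compound and SYPRO Orange in Hepes (20 mM, pH 7.5) with 500 mM NaCl. Temperature is then raised at 3°C/min and fluorescence-monitored unfolding yields the melting temperature change, ΔTm in degrees Celsius.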

[2] = target: T2, ~100 representative kinases (Homo sapiens, UniProt P11362); settings: protein FGFR1; average of three replicates
T2 construct: Recombinant protein kinase domains with a concentration of 2 μM
Summary of the method: as §1

[3] = target: T3, ~100 representative kinases (Homo sapiens, UniProt P15056); settings: Protein BRAF; average of three replicates
T3 construct: Recombinant protein kinase domains with a concentration of 2 μM
Summary of the method: as §1

[4] = target: T4, ~100 representative kinases (Homo sapiens, UniProt Q13554); settings: Protein CAMK2B; average of three replicates
T4 construct: Recombinant protein kinase domains with a concentration of 2 μM
Summary of the method: as §1

[5] = target: T5, ~100 representative kinases (Homo sapiens, UniProt O94804); settings: Protein STK10; DSF; average of three replicates
T5 construct: Recombinant protein kinase domains with a concentration of 2 μM
Summary of the method: as §1

[6] = target: T6, ~100 representative kinases (Homo sapiens, UniProt Q8TDX7); settings: protein NEK7; average of three replicates
T6 construct: Recombinant protein kinase domains with a concentration of 2 μM
Summary of the method: as §1

[7] = target: T7, ~100 representative kinases (Homo sapiens, UniProt Q9UEE5); settings: Protein STK17A; DSF; average of three replicates
T7 construct: Recombinant protein kinase domains with a concentration of 2 μM
T7 sequence (Q9UEE5 1-414): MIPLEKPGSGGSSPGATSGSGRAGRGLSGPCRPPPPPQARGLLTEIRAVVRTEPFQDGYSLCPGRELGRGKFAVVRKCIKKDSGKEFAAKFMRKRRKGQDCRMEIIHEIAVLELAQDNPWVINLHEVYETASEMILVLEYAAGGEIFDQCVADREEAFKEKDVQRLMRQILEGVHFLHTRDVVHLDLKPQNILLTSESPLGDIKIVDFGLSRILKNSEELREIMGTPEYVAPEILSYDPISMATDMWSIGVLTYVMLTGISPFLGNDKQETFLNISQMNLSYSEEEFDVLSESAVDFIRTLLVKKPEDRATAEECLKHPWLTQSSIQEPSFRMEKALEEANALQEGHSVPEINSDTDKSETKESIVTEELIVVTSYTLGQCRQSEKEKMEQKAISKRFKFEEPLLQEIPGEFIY
Summary of the method: as §1

[8] = target: T8, ~100 representative kinases (Homo sapiens, UniProt P34947); settings: protein GPRK5; average of three replicates
T8 construct: Recombinant protein kinase domains with a concentration of 2 μM
Summary of the method: as §1

[9] = target: T9, ~100 representative kinases (Homo sapiens, UniProt Q12866); settings: protein MERTK; average of three replicates
T9 construct: Recombinant protein kinase domains with a concentration of 2 μM
T9 sequence (Q12866 21-999): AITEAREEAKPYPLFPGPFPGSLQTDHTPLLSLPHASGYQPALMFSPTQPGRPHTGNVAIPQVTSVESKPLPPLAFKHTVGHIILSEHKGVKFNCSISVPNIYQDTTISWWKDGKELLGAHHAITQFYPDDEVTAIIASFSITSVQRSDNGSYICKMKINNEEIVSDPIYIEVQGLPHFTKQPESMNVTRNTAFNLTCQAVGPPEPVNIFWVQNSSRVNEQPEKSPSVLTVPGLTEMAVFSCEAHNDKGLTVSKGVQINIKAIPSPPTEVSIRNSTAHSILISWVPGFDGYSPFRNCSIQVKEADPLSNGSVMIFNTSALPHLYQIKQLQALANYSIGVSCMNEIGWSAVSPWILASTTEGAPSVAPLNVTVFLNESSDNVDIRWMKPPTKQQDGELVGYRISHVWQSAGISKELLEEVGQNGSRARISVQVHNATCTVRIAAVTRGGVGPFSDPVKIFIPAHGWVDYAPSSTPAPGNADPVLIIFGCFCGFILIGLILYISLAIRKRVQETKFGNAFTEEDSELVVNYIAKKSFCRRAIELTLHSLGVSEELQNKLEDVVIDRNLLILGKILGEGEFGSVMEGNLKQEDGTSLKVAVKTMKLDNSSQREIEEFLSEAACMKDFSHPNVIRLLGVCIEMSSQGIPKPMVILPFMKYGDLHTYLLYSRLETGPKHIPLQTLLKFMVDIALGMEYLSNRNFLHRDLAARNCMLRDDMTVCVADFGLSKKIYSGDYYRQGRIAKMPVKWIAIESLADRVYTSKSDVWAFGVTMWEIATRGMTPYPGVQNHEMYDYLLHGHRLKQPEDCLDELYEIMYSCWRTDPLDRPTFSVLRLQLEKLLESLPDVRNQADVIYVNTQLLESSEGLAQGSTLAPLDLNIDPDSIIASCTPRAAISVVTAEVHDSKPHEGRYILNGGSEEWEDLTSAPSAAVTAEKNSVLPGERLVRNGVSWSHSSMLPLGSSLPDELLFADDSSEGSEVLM
Summary of the method: as §1

[10] = target: T10, ~100 representative kinases (Homo sapiens, UniProt Q9Y243); settings: Protein AKT3; average of three replicates
T10 construct: Recombinant protein kinase domains with a concentration of 2 μM
Summary of the method: as §1

[11] = target: T11, ~100 representative kinases (Homo sapiens, UniProt O96013); settings: protein PAK4; average of three replicates
T11 construct: Recombinant protein kinase domains with a concentration of 2 μM
Summary of the method: as §1

T11 sequence (O96013 whole entry, the tested form may be a part): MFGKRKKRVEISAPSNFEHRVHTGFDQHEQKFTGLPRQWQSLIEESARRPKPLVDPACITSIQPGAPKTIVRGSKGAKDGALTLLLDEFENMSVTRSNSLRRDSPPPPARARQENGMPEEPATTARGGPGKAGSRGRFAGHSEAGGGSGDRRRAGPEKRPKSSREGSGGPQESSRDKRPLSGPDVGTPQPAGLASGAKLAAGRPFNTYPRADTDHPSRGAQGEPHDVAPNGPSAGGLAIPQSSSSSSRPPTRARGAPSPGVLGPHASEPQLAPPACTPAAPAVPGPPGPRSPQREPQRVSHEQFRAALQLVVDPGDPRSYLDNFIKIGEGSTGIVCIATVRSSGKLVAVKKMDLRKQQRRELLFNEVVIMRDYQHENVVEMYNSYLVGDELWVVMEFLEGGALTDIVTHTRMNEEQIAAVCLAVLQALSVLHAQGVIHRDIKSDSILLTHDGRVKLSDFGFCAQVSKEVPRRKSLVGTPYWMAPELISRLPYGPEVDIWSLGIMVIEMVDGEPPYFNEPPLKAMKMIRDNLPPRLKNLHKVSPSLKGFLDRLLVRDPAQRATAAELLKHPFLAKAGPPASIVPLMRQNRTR
T5 sequence (O94804 whole entry, the tested form may be a part): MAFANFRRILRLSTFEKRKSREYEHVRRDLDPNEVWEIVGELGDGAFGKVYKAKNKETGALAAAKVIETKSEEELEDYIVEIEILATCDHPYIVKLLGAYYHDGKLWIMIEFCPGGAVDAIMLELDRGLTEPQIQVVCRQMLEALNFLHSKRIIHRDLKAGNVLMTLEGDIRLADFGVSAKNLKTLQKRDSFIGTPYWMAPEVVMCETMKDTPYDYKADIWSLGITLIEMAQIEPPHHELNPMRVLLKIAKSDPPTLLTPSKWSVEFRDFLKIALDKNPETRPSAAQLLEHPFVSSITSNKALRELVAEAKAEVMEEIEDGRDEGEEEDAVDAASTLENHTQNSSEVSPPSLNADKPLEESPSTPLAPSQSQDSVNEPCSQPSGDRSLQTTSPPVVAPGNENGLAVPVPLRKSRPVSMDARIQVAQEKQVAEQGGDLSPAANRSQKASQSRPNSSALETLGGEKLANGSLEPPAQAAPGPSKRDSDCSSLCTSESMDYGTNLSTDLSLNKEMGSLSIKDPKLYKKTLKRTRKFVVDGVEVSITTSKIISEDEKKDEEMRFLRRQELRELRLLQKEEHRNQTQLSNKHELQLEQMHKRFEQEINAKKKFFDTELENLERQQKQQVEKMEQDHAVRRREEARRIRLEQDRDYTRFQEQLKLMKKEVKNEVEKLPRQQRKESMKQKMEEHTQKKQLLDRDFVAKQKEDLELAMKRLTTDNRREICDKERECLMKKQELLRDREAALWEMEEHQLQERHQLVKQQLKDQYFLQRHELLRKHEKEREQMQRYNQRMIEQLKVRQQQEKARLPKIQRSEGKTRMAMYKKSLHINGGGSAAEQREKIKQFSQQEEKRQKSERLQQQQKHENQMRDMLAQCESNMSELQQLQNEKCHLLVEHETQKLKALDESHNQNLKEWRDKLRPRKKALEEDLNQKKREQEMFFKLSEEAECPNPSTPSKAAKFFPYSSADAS
T10 sequence (Q9Y243 whole entry, the tested form may be a part): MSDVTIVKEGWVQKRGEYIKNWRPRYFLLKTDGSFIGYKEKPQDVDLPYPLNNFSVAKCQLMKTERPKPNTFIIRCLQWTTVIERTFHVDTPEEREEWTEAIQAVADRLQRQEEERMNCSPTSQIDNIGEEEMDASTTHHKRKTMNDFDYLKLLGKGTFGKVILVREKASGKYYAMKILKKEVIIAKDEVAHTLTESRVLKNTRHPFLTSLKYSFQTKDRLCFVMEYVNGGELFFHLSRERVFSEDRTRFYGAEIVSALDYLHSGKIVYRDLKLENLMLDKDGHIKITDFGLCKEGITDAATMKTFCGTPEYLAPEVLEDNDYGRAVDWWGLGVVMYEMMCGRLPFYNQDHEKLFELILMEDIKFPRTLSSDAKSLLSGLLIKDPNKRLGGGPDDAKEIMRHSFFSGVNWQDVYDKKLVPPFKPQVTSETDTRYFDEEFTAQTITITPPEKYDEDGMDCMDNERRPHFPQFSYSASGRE
T6 sequence (Q8TDX7 whole entry, the tested form may be a part): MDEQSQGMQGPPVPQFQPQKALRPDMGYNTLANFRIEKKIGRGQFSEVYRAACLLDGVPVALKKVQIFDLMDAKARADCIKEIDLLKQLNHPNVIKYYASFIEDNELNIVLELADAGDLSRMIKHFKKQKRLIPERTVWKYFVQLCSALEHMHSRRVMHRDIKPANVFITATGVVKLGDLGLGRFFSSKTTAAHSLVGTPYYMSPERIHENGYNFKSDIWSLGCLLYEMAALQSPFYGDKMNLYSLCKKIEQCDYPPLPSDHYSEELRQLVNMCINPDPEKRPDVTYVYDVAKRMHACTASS
T8 sequence (P34947 whole entry, the tested form may be a part): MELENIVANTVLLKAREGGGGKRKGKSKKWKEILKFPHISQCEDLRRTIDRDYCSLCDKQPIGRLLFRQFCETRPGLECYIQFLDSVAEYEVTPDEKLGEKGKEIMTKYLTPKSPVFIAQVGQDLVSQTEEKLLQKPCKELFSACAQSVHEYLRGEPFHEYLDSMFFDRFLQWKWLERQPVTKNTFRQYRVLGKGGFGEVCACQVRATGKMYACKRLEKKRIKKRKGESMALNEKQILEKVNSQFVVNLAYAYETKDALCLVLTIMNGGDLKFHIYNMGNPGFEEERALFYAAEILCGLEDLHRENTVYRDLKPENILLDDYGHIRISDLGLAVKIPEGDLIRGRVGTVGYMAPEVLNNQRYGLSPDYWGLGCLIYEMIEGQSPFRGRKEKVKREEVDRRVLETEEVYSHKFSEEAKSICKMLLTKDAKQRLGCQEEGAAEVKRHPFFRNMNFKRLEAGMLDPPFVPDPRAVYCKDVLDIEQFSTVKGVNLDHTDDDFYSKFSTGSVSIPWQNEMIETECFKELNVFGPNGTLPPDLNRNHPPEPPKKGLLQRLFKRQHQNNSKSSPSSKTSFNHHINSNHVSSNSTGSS
T2 sequence (P11362 22-822): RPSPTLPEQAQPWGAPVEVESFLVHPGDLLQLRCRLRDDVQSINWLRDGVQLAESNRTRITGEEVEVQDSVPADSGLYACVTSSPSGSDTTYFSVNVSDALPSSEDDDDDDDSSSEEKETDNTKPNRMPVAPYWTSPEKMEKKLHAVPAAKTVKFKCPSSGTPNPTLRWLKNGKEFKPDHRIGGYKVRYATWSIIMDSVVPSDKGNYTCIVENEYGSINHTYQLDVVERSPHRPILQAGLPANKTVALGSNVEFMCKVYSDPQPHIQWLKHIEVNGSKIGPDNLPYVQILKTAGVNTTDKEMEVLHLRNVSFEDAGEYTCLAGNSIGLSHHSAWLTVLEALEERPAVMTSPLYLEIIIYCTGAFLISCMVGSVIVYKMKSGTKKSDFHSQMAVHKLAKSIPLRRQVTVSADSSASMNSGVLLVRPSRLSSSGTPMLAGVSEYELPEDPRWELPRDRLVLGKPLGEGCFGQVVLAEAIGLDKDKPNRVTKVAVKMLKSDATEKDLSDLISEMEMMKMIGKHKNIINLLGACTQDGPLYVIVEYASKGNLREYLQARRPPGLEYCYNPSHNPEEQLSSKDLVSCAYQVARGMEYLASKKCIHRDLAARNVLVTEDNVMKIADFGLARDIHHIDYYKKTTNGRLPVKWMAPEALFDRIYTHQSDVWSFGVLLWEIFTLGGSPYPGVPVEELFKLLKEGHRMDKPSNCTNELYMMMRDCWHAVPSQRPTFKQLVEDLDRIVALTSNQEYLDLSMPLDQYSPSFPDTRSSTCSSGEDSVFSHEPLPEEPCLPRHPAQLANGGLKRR
T4 sequence (Q13554 whole entry, the tested form may be a part): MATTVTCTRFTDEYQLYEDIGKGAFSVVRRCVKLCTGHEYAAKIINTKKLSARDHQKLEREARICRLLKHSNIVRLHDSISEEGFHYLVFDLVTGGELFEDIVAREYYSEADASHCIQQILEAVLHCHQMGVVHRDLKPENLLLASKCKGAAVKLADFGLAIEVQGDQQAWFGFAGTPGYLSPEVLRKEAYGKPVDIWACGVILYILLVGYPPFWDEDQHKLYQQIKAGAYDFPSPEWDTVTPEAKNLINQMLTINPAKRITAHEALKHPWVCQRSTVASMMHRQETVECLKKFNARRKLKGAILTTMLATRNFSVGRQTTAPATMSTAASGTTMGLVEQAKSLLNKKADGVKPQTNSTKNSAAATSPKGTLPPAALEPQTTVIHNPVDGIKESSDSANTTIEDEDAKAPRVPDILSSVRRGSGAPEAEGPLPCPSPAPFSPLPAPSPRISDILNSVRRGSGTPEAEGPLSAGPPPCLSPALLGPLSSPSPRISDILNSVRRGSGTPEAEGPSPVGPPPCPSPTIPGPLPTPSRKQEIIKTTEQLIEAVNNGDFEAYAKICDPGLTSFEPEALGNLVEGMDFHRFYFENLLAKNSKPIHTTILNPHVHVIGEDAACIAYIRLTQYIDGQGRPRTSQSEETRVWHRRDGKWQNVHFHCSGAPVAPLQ

Structure (SMILES)	dTm [1] [K]	dTm [2] [K]	dTm [3] [K]	dTm [4] [K]	dTm [5] [K]	dTm [6] [K]	dTm [7] [K]	dTm [8] [K]	dTm [9] [K]	dTm [10] [K]	dTm [11] [K]
O=C(Nc1cccc(-c2c[nH]c3ncnc(N4CCOCC4)c23)c1)C1(C(=O)Nc2cccc3c2CCC3)CC1 [Compound 11]	0.00	0.52	10.02	1.38	10.54	0.84	1.27	-0.20	2.34	-0.39	0.55
CCc1ccc(NC(=O)C2(C(=O)Nc3cccc(-c4c[nH]c5ncnc(N6CCOCC6)c45)c3)CC2)cc1 [Compound 15]	6.64	0.64	9.26	1.13	12.89	-0.42	-0.28	1.27	0.37	-0.80	-0.0471
COc1ccc(NC(=O)C2(C(=O)Nc3cccc(-c4c[nH]c5ncnc(N6CCOCC6)c45)c3)CC2)cc1 [Compound 16]	2.09	0.70	4.18	0.11	7.29	-0.67	-0.48	0.44	-1.03	0.25	-0.80
COc1cc(NC(=O)C2(C(=O)Nc3cccc(-c4c[nH]c5ncnc(N6CCOCC6)c45)c3)CC2)ccc1F [Compound 21]	8.47	1.39	10.93	1.15	12.16	0.39	0.20	0.34	0.18	0.58	-0.79
Cc1ccc(-n2nc(C(C)(C)C)cc2NC(=O)Nc2cccc(-c3c[nH]c4nc(Cl)nc(N5CCOCC5)c34)c2)cc1 [Compound 30]	-0.13	1.65	18.85	-1.25	13.38	-1.05	0.28	-3.24	-1.91	-0.99	0.13
C[C@@H]1CN(c2cc(-c3n[nH]c4ccc(OC5(C)CC5)cc34)ncn2)C[C@H](C)O1 [MLi2]	0.38	-0.19	0.50	1.04	-0.79	0.03	-0.26	0.07	0.0155	-0.44	-0.10
O=C(Nc1cccc(-c2c[nH]c3ncnc(N4CCOCC4)c23)c1)C1(C(=O)Nc2ccc(F)c(F)c2)CC1 [Compound 17]	6.96	1.11	7.80	1.54	13.86	1.01	0.99	0.75	1.34	0.71	0.06
CC(C)(C)c1cc(NC(=O)Nc2cccc(-c3c[nH]c4ncnc(N5CCOCC5)c34)c2)n(-c2ccc3ncccc3c2)n1 [Compound 28]	9.72	8.37	32.83	1.84	20.14	2.34	4.48	0.98	5.15	0.49	0.80
COc1cc(C(=O)N2CCOCC2)c(F)cc1Nc1nc(N(C)C)c2c(Cl)c[nH]c2n1 [Compound 36]	10.98	-0.10	-0.49	2.02	-1.96	-0.65	0.25	0.46	-0.62	0.29	-0.14
